In a melting point compilation (Tetko et al.; mined from patent text by program, amines drawn as free bases though some values may be those of a salt) one finds melting point data, which are given here for 90 molecules.

Broadly, the melting point is the temperature of the solid-liquid transition.

Turning to `CC(=O)OC1(C(C)=O)C(C)CC2C3CC(C)C4=CC(=O)C=CC4(C)C3C(O)CC21C` (stereo not given), the melting point fell in the range of 270 to 272 °C. The same measure for `Nc1c(-c2cc(Cl)ccc2O)c2c(Cl)cc(Cl)cc2[nH]c1=O`: 275 to 277 °C; for `O=C(NCc1ccccc1)Nc1ccc(N2CC(c3ccccc3)CC2=O)cn1` (stereo not given): 172 to 173 °C; for `CSc1ccc(/C=C/c2nc3ccccc3n2-c2ccccn2)cc1`: 140 to 141 °C. The same measure for `COCC(=O)N(c1c(C)ccc2ccccc12)C(CCO)C(=O)OC` (stereo not given): 132 to 137 °C; for `CCOP(=O)(CNC(=O)Nc1c(C(C)C)cccc1C(C)C)OCC`: 132 to 134 °C. With `CC(C)(NC(=O)C1=C(C(=O)Nc2cc(OC3CCCC3)c(Cl)cc2F)CCCC1)c1cccc(F)c1`, the melting point lay in the range of 231 to 234 °C. The figure for `CCOCCOc1cccc(-c2ccc3c(c2)C=C(C(=O)Nc2ccc(CN(C)C4CCOCC4)cc2)CCS3(=O)=O)c1` is 180 to 182 °C. As for `CC(=O)Nc1ccc(N2N=C(C)CC2=O)cc1`, the melting point came out at 230 °C. The same measure for `CCC1=NN(CCO[Si](C)(C)C(C)(C)C)C(=O)C1Oc1cc(C#N)cc(C#N)c1` (stereo not given): 204 °C; for `CCOC(=O)c1c(CN2CCSCC2)nc2cc(OC)c(OC)cc2c1-c1ccc(OC)c(OC)c1`: 148 to 149 °C; for `O=[N+]([O-])c1ccc2nc3c(nc2c1)OCC1CCCCN31` (stereo not given): 151 to 154 °C. The same measure for `CCC1(CC)CN(C(C)(C)C)C(=O)C(C)(CC)N1OC(C)(C)C#N` (stereo not given): 78 to 80 °C; for `CCCCCCc1ccc(C(=O)N2CCOCC2)cc1[N+](=O)[O-]`: 68.5 to 71.5 °C; for `CN(C)C(=S)Oc1ccc(C(=O)c2ccccc2C#N)cc1`: 138 °C. The figure for `COc1ccc(CN2C(=O)C3CC(c4ccccc4)(C3)C2=O)cc1` is 87 to 88 °C; for `N#Cc1ccc(N2c3cc(Cl)ccc3C(=O)OC23CCNCC3)cc1` it is 183 to 185 °C. The molecule `COc1cc(OC)cc(-c2cc(=O)c3ccc(OCC(O)CNC(C)(C)C)cc3o2)c1` (stereo not given) displayed a melting point of 145 to 146 °C. Molecule `CCOP(=O)(OCC)C(Nc1ncc(-c2ccccc2)s1)P(=O)(OCC)OCC` yielded a melting point of 151 to 153 °C. The same measure for `CCCCc1cn(-c2c(Cl)cccc2Cl)c(=O)n1Cc1ccc(-c2ccccc2-c2nnn[nH]2)nc1`: 212 °C; for `CC(=NOCCO)c1ccc(-c2ccccc2)cn1`: 66 to 68 °C. The figure for `O=c1n(CCCCCl)nc2n1-c1ccccc1OC2` is 56 to 57 °C; for `CC(Cc1ccc(Oc2cc(N3CCN(Cc4ccccn4)CC3)nc(N)n2)cc1)(Oc1ccccc1)C(=O)O` (stereo not given) it is 138 to 139 °C. The figure for `Nc1nc(N)c(-c2cccc(Cl)c2Cl)c(COc2ccccc2)n1` is 211 to 213 °C. Molecule `COC(=O)CCCc1cc2cc(Cl)ccc2n1S(=O)(=O)c1ccc2c(c1)CCN2C(C)=O` had a melting point of 162 to 165 °C. Molecule `CC(C)S(=O)(=O)NC(=O)Nc1ccc(Cl)c(Cl)c1` showed a melting point of 151 to 154 °C.

Turning to `Nc1cc(O)ccc1/C=C/c1ccc(O)cc1`, the melting point is 229 to 232 °C. The same measure for `CC(=O)Nc1cccc(Nc2ncnc3[nH]cc(C(=O)c4ccccc4C)c23)c1`: greater than 300 °C; for `CCOC(=O)c1cc(-c2ccccc2)n(-c2cccc(C)c2)c1C`: 103 to 104 °C. The same measure for `OCc1cc2c(F)cccc2nc1Cl`: 176 °C; for `Cc1ccc(N)cc1Nc1nccc(-c2ccc(Cl)nc2)n1`: 117 to 118 °C; for `O=C1CCC(N2Cc3c(OCc4ccc(S(=O)(=O)N5CCOCC5)cc4)cccc3C2=O)C(=O)N1` (stereo not given): 308 to 310 °C.

Molecule `CC(Br)C(=O)OCN1C(=O)NC(c2ccccc2)(c2ccccc2)C1=O` (stereo not given) had a melting point of 112 to 115 °C. The same measure for `CCCc1c(OC(C(=O)O)c2ccc(Cl)c(Cl)c2)ccc(C(C)=O)c1O` (stereo not given): 177 to 180 °C.

The molecule `O=C(O)c1cc2c([N+](=O)[O-])c(O)c(O)cc2oc1=O` displayed a melting point greater than 300 °C. For `CC(=O)c1cc(Cl)c(OCCOc2ccc3ccccc3c2)c(Cl)c1`, the melting point lay within 110 to 111 °C.

`C=CCOc1cccc([N+](=O)[O-])c1OC`: the melting point fell in the range of 93 to 94 °C.

Take `CCCCCCCCCCCCCC(O)c1nc2ncccc2o1` (stereo not given): the melting point lay in the range of 52 to 54 °C.

For `Cc1cc(-c2cc(C(F)(F)F)n3ncc(-c4ccncc4)c3n2)ccc1C(F)(F)F`, the melting point was found to be 227 °C. The figure for `COc1cccc(C(F)(F)F)c1C(N)=O` is 178 to 181 °C. `CCCCCC(C)Nc1nnc(-c2cccc(Oc3ccc(C(C)(C)C)cc3)c2)s1` (stereo not given) showed a melting point of 115 to 116 °C. The figure for `CN1c2ccccc2-c2nc3ccc(/C=C/C#N)cc3c3cccc1c23` is 262 to 264 °C. The figure for `O=C(O)C1(C(=O)O)CC2CCC2C1` (stereo not given) is 161 to 170 °C.

In turn, `CCCCC1(CC)COP(=O)(Cc2ccc([N+](=O)[O-])cc2)OC1` (stereo not given) showed a melting point of 111 to 112 °C.

The molecule `COC(=O)c1ccccc1-c1cc(-c2ccc(OC)cc2)[nH]n1` gave a melting point of 92 to 93 °C. The same measure for `COc1ccccc1-n1c(=O)[nH]c2c(C(N)=O)nc(Nc3ccccc3O)nc21`: 314 to 315 °C; for `COc1ccnn2c(-c3ccnc(N)c3)c(-c3ccc(F)c(C)c3)nc12`: 219 to 220 °C; for `CCCN(CCC)C(=O)CNc1nc(-c2ccccc2)nc2c1CCCC2`: 87 to 88 °C.

As for `Cc1cc(C)c(C(=O)Nc2ccc(-n3nc(C(F)(F)F)cc3C(F)(F)F)cc2)c(C)c1`, the melting point lay within 203 to 205 °C. The same measure for `Cc1cc([N+](=O)[O-])c2[nH]cc(CO)c(=O)c2c1`: greater than 240 °C; for `Cn1nccc1CCS(=O)(=O)Cc1ccc(OCc2coc(C=Cc3ccc(C(F)(F)F)cc3)n2)cc1`: 204 °C; for `COc1cc2ncnc(N3CCc4cc(C)ccc43)c2cc1OC`: 180 to 181 °C.

Regarding `COc1c(C)cc(C)c2c1C(=O)C1CCCCC21` (stereo not given), the melting point was in the range of 72 to 74 °C. On to `N#Cc1cccc(Oc2ncccc2OCCCc2ccncc2O)c1`, for which the melting point is 84 to 86 °C. The figure for `CC1CCc2c(N3CCC(O)CC3)ccc3c(=O)c(C(=O)O)cn1c23` (stereo not given) is 238 to 240 °C. The same measure for `COC(=O)N[C@@H](C(=O)O)c1ccccc1`: 122 to 125 °C; for `CC1(C)CC(Nc2nc(NC3CC(C)(C)NC(C)(C)C3)nc(N(CO)C3CC(C)(C)NC(C)(C)C3)n2)CC(C)(C)N1`: 201 to 202 °C. The same measure for `COc1cc(C(=O)c2ncc3ccc(C(=O)O)cn23)ccc1[N+](=O)[O-]`: 313 °C. `CCOC(=O)/C=C/c1cc2cc(OCc3nc(-c4ccccc4)oc3C)ccc2o1` returned a melting point of 120 to 121 °C.

`COC(=O)NS(=O)(=O)c1cccc([N+](=O)[O-])c1`: the melting point lay in the range of 121 to 123 °C.

With `COc1ccc(CC(=O)c2cccs2)cc1`, the melting point lay within 77 to 78.4 °C. The same measure for `CC(=O)Nc1cnc(-c2cc(Cl)cc(Cl)c2Cl)c(N)n1`: 200 to 203 °C; for `C[C@@H]1S[C@@H](C(=O)Nc2ccc(CN3C(=O)CN(C)C3=O)cc2)Cc2cc3c(cc2C1=O)OCO3`: 228 to 230 °C; for `Cc1ccc2cccc(OCc3c(Cl)ccc(S(=O)(=O)N(C)Cc4ccccc4)c3Cl)c2n1`: 154 °C. The same measure for `Clc1ccccc1-c1cnc(-c2ccccc2Cl)nc1`: 112 °C; for `O=C(C=Cc1ccccc1)Oc1ccccc1`: 114 to 116 °C. The figure for `CCCCOC1C=CC(=O)N1S(=O)(=O)c1cccs1` (stereo not given) is 56 to 57 °C; for `Clc1ccc(-c2ccn3nccc3n2)cc1` it is 178 to 180 °C; for `CC(C)Oc1nc(N)nc2[nH]cnc12` it is 204 to 206 °C. With `CCCc1cc(O)c(C#N)s1`, the melting point was 78 °C. Molecule `O=C(O)C1=Cc2cc(-c3ccccc3)ccc2OC1C(F)(F)F` (stereo not given) displayed a melting point of 197 to 198 °C. The same measure for `O=C1c2ccccc2N2CCCN3CCN1C32` (stereo not given): 144 to 146 °C; for `CC(C)n1cc(-c2nc(C(N)=O)c(N)nc2-c2cccc(F)c2)ccc1=O`: 259 °C; for `CN(Cc1ccc(NC(=O)C2=Cc3cc(-c4ccc5c(c4)CCC(C)(C)O5)ccc3S(=O)(=O)CC2)cc1)C1CCOCC1`: 222 to 226 °C. The same measure for `Cc1ccccc1CNc1cc(C(=O)N(C)C)cc2c1nc(C)n2C`: 158 to 159 °C; for `COc1ccc(COC(=O)ON=C(C#N)c2ccccc2)cc1`: 112 to 113 °C. The same measure for `COc1ccc(Cn2cnc3c(Cl)nc(C(F)(F)F)nc32)cc1`: 104 to 106 °C; for `CC(C)(Cc1ccc(OC(F)(F)F)cc1)C(=O)C(C)(C)n1cncn1`: 100 °C.

Take `COC(=O)c1cccc2c1Oc1ccccc1N2`: the melting point is 113 to 114 °C. The figure for `C[N+]1([O-])CC(CO)(c2ccccn2)C(=O)c2ccccc21` (stereo not given) is 198 to 200 °C; for `Cc1cc(O)c(C(=O)CCC(F)(F)F)c(=O)o1` it is 104 °C; for `Cc1[nH]c(=O)c(-c2csc(-c3ccnc(NCC4CC4)c3)n2)cc1C(=O)NCC1CC1` it is greater than 260 °C. The same measure for `Cc1ccccc1Cc1n[nH]c2c1c(=O)n(-c1cccc(C(F)(F)F)c1)c1ncccc21`: 249 to 252 °C; for `CCCOc1cc(=O)n(CCC)c(=O)n1Cc1ccc(-c2ccccc2C2NOC(=O)N2)cc1` (stereo not given): 129 to 132 °C. On to `O=C1c2ccccc2C(=O)N1CCCC#Cc1ccccn1`, for which the melting point fell in the range of 127 to 129 °C. The same measure for `COc1cccc2c1CN(Nc1ccncc1)CC2`: 170 to 171 °C; for `CC(=O)NC[C@H]1CN(c2cc(F)c(N3CCSCC3)c(F)c2)C(=O)O1`: 187 to 188 °C; for `CC(C)(C)OC(=O)NCc1ccc2c(c1)CNC2`: 114 to 115 °C. The figure for `O=C(O)c1cnn2c(-c3cccc(C(F)(F)F)c3)ccnc12` is 248 to 250 °C; for `CCCCc1nc(-c2ccco2)n[nH]1` it is 73 to 74 °C.
